Data set [1] is described as follows: Volume of distribution at steady state in human at 0.1 mg/kg administered 15 mins infusion. It counts as ADME, organism-based. The arrangement: dose 0.1 mg/kg. Particulars: in vivo, iv, read-out: Vdss.
Data set [2] can be described thus: Total clearance in human at 0.1 mg/kg administered 15 mins infusion. The format is ADME, organism-based. Particulars: in vivo, iv. The arrangement: dose 0.1 mg/kg.
Data set [3] can be described thus: Volume of distribution at steady state in human at 1 mg/kg. The format is ADME, organism-based. The arrangement: dose 1 mg/kg. Particulars: in vivo, read-out: Vdss.
A short description of data set [4]: Volume of distribution at steady state in human at 2.8 mg, iv. It counts as ADME, organism-based. Particulars: in vivo, read-out: Vdss.
The nature of data set [5]: Volume of distribution at steady state in human at 150 mg, iv. The format is ADME, organism-based. Particulars: in vivo, read-out: Vdss.
Data set [6] is described as follows: Volume of distribution at steady state in human at 130 mg administered 90 mins infusion. It counts as ADME, organism-based. Particulars: in vivo, iv, read-out: Vdss.
The nature of data set [7]: Volume of distribution at steady state in human at 5 mg, iv. Particulars: in vivo, read-out: Vdss. The format is ADME, organism-based.
The nature of data set [8]: Volume of distribution at steady state in human at 25 mg, iv. The format is ADME, organism-based. Particulars: in vivo, read-out: Vdss.
Data set [9] can be described thus: Volume of distribution in human at 100 mg administered 30 mins infusion. It counts as ADME, organism-based. Particulars: in vivo, iv.
Data set [10] can be described thus: Volume of distribution at steady state in human administered three sequential 4-h infusion at 1, 5 and 15 mg/hr. Particulars: in vivo, iv, read-out: Vdss. The format is ADME, organism-based.
Data set [11] can be described thus: Volume of distribution at steady state in human at 100 mg, iv. The format is ADME, organism-based. Particulars: in vivo, read-out: Vdss.
Data set [12] can be described thus: Volume of distribution at steady state in human at 15 ng/kg/min, iv administered 150 mins infusion. The format is ADME, organism-based. Particulars: in vivo, read-out: Vdss.
Data set [13] can be described thus: Volume of distribution at steady state in human at 1 mg/kg, iv administered 20 mins infusion. It counts as ADME, organism-based. The arrangement: dose 1 mg/kg, route intravenous. Particulars: in vivo, read-out: Vdss.
A short description of data set [14]: Volume of distribution at steady state in human. Particulars: in vivo.
The nature of data set [15]: Volume of distribution at steady state in human at 0.2 mg, iv. Particulars: in vivo, read-out: Vdss. The format is ADME, organism-based.
Data set [16] can be described thus: Volume of distribution at steady state in human at 10 mg, iv. It counts as ADME, organism-based. Particulars: in vivo, read-out: Vdss.
Data set [17] can be described thus: Half life in human at 2 mg, iv. It counts as ADME, organism-based. Particulars: in vivo.
A short description of data set [18]: Mean residence time in human at 2 mg, iv. Particulars: in vivo. The format is ADME, organism-based.
The nature of data set [19]: Clearance in human at 2 mg, iv. The format is ADME, organism-based. Particulars: in vivo.
Data set [20] in a line: Volume of distribution at steady state in human administered 1 to 12 g doses with 2 to 3.5 hrs iv infusion. The format is ADME, organism-based. Particulars: in vivo, read-out: Vdss.
Data set [21] can be described thus: Volume of distribution at steady state in human at 0.149 mg/kg, iv. The format is ADME, organism-based. The arrangement: dose 0.149 mg/kg, route intravenous. Particulars: in vivo, read-out: Vdss.
The nature of data set [22]: Clearance in human at 200 ug. The format is ADME, organism-based. Particulars: in vivo.
A short description of data set [23]: Half life in human administered three way cross over study in 11, 10 and 12 healthy subjects at 5, 10, 15 mg dose respectively as 1 hr infusion. The format is ADME, organism-based. Particulars: in vivo, intravenous.
Data set [24] in a line: Mean residence time in human given 31 administration across 6 doses 2.5 to 25 mg administered 30 mins infusion each dose separated by 13 days. The format is ADME, organism-based. Particulars: in vivo, iv.
A short description of data set [25]: Clearance in human given 31 administration across 6 doses 2.5 to 25 mg administered 30 mins infusion each dose separated by 13 days. It counts as ADME, organism-based. Particulars: in vivo, iv.
Data set [26] in a line: Mean residence time in human administered three way cross over study in 11, 10 and 12 healthy subjects at 5, 10, 15 mg dose respectively as 1 hr infusion. It counts as ADME, organism-based. Particulars: in vivo, intravenous.
Data set [27] can be described thus: Clearance in human administered three way cross over study in 11, 10 and 12 healthy subjects at 5, 10, 15 mg dose respectively as 1 hr infusion. It counts as ADME, organism-based. Particulars: in vivo, intravenous.
Data set [28] in a line: Half life in human given 31 administration across 6 doses 2.5 to 25 mg administered 30 mins infusion each dose separated by 13 days. It counts as ADME, organism-based. Particulars: in vivo, iv.
Data set [29] is described as follows: Volume of distribution at steady state in human at 50 mg, iv. The format is ADME, organism-based. Particulars: in vivo, read-out: Vdss.
The nature of data set [30]: Volume of distribution at steady state in human dosed 1 hr iv infusion. Particulars: in vivo.
Data set [31] can be described thus: Volume of distribution at steady state in human at 2.5 mg, iv administered as bolus dose. The format is ADME, organism-based. Particulars: in vivo, read-out: Vdss.

We go through 24 compounds from ChEMBL document CHEMBL1158480, “In silico prediction of volume of distribution in human using linear and nonlinear models on a 669 compound data set” (J Med Chem, 2009).

Take `Cc1nccn1CCC(C(N)=O)(c1ccccc1)c1ccccc1` [IMIDAFENACIN]: the Vd in data set [1] came out at 1.51 L/kg. In addition, the clearance in data set [2] was 492 mL/min.

Turning to `CC(C)(N)CC(=O)N[C@@H]1CCc2ccccc2N(Cc2ccc(-c3ccccc3-c3nnn[nH]3)cc2)C1=O`, the Vd in [3] is 0.2 L/kg.

With `CC(C)Oc1ccccc1N1CCN(Cc2cccc(C(=O)N3CCCCC3)c2)CC1` [MAZAPERTINE], the Vd in data set [4] was 1.54 L/kg.

For `COCCOC[C@H](CC1(C(=O)N[C@H]2CC[C@@H](C(=O)O)CC2)CCCC1)C(=O)O` [CANDOXATRILAT], the Vd in data set [5] amounted to 0.25 L/kg.

Take `O=C(O)c1ccc(-n2nc(-c3ccccc3O)nc2-c2ccccc2O)cc1` [DEFERASIROX]: in [6], the Vd was found to be 0.2 L/kg.

In the case of `Cc1nc2sccn2c(=O)c1CCN1CCC(=C(c2ccc(F)cc2)c2ccc(F)cc2)CC1` [RITANSERIN], in [7], the Vd was 1.41 L/kg.

On to `CC(=O)CC(c1ccc([N+](=O)[O-])cc1)c1c(O)c2ccccc2oc1=O` (stereo not drawn) [ACENOCOUMAROL], for which the Vd in data set [8] is 0.24 L/kg.

Take `CC1(C)[C@@H](O[C@H]2O[C@H](C(=O)O)[C@@H](O)[C@H](O)[C@H]2O[C@H]2O[C@@H](C(=O)O)[C@H](O)[C@@H](O)[C@@H]2O)CC[C@]2(C)[C@H]3C(=O)C=C4[C@@H]5C[C@@](C)(C(=O)O)CC[C@]5(C)CC[C@@]4(C)[C@]3(C)CC[C@@H]12` [ISOGLYCIRRHIZINATE]: the Vd in data set [9] was found to be 0.05 L/kg.

Regarding `COc1ccccc1Oc1c(NS(=O)(=O)c2ccc(C)cn2)nc(-c2ccnc(-c3nnn[nH]3)c2)nc1OCCO` [CLAZOSENTAN], in [10], the Vd is 0.23 L/kg.

Take `O=C(O)CCCCO/N=C(/c1cccnc1)c1cccc(C(F)(F)F)c1` [RIDOGREL]: the Vd in data set [11] amounted to 0.43 L/kg.

In the case of `CCCCC[C@H](O)CC[C@@H]1[C@H]2Cc3cccc(OCC(=O)O)c3C[C@H]2C[C@H]1O` [TREPROSTINIL], the Vd in data set [12] is 0.23 L/kg.

On to `CC(=O)N(CCC(CCN1CCCCC1)(C(N)=O)c1ccccc1Cl)C(C)C` (stereo not drawn) [BIDISOMIDE], for which the Vd in data set [13] stood at 2.6 L/kg.

Turning to `C[C@@H]1[C@H](O)[C@@H](C)/C=C/C=C/C=C/C=C/C=C/C=C/C=C/[C@H](O[C@@H]2O[C@H](C)[C@@H](O)[C@H](N)[C@@H]2O)C[C@@H]2O[C@](O)(C[C@@H](O)C[C@@H](O)[C@H](O)CC[C@@H](O)C[C@@H](O)CC(=O)O[C@H]1C)C[C@H](O)[C@H]2C(=O)O` [AMPHOTERICIN B], in data set [14], the Vd was found to be 0.62 L/kg.

For the compound `C[C@@H]1CN([C@H]2CC[C@](C#N)(c3ccc(F)cc3)CC2)CC[C@]1(C(=O)O)c1ccccc1` [LEVOCABASTINE], in data set [15], the Vd was found to be 1.17 L/kg.

In data set [14], `CO[C@H]1C[C@H](O[C@H]2[C@H](C)[C@@H](O[C@@H]3O[C@H](C)C[C@H](N(C)C)[C@H]3O)[C@@H](C)C[C@@]3(CO3)C(=O)[C@H](C)[C@@H](O)[C@@H](C)[C@@H](C)OC(=O)[C@@H]2C)O[C@@H](C)[C@@H]1O` [OLEANDOMYCIN] returned a Vd of 0.77 L/kg.

Turning to `CN(c1nc2ccccc2s1)C1CCN(CC(O)COc2ccc(F)cc2)CC1` (stereo not drawn) [SABELUZOLE], the Vd in data set [16] was 5.5 L/kg.

In turn, `CCc1nc2c(N)nc3ccccc3c2n1CCCCNS(C)(=O)=O` [CPG-52852] had a half-life in data set [17] of 7.1 h. In data set [18], this compound displayed an MRT of 4.7 h. The same compound showed a clearance in data set [19] of 7.7 mL/min/kg.

As for `Nc1ccn([C@@H]2O[C@H](CO)[C@@H](O)[C@@H]2O)c(=O)n1` [CYTARABINE], the Vd in data set [20] came to 0.67 L/kg.

Take `Cc1nc(=O)c(C#N)c(NCc2cccnc2)[nH]1` [PELRINONE]: the Vd in [21] is 0.39 L/kg.

`CC(=O)Nc1ccc(C2=NNC(=O)C[C@H]2C)cc1`: in data set [22], the clearance is 33.3 mL/min. The Vd in data set [14] came to 2.38 L/kg.

For `CN(c1nc2ccccc2s1)C1CCN(C[C@H](O)COc2ccc(F)c(F)c2)CC1` [LUBELUZOLE], the half-life was 23.5 h in [23] and 19.8 h in data set [28]. Besides, the results for the MRT in data set [24] and in data set [26] were 23.3 h and 28.7 h, respectively. In addition, the clearance in [25] was 1.54 mL/min/kg; in data set [27], 1.8 mL/min/kg.

Take `COC(=O)c1cnc2n1CCc1ccccc1C2=C1CCN(CCc2ccc(OCc3ccc4ccccc4n3)cc2)CC1`: the Vd in [29] was determined as 6.03 L/kg.

In data set [30], `C[C@]12CC[C@@H]3c4ccc(O)cc4C[C@@H](CCCCCCCCC[S+]([O-])CCCC(F)(F)C(F)(F)F)[C@H]3[C@@H]1CC[C@@H]2O` (stereo partly drawn) [FULVESTRANT] had a Vd at 1 h of 4.15 L/kg.

With `OCCN1CCN(CCCN2c3ccccc3Sc3ccc(C(F)(F)F)cc32)CC1` [FLUPHENAZINE], in [31], the Vd was 2.9 L/kg.
